Measurements published in publication PMC6831736, “Highly Variable Pharmacokinetics of Tyramine in Humans and Polymorphisms in OCT1, CYP2D6, and MAO-A” (Frontiers in Pharmacology, 2019).
Where two headings read alike, the source gives them in different places.

Legend:
healthy volunteers [1] = conditions: in vivo
Protocol: (§1) To avoid interference by dietary tyramine, food and drink (including alcohol) consumption was prohibited from the evening before the study day until the last blood and urine sampling, except for water at any time and bread with butter 3 h before and 3 h after tyramine administration. A medical examination and electrocardiogram measurement were conducted 3 h prior to tyramine administration. Blood samples were drawn 3 h before and at the following times after tyramine intake: 15, 30, and 45 min as well as 1, 1.5, 2, 2.5, 3, 4, and 6 h. Urine samples were taken from 3 h to 10 min before tyramine administration as well as from 0 to 3 h and from 3 to 6 h after. Blood samples were centrifuged (10 min, 4°C, 4,000 rpm) and plasma and urine samples were stored at −20°C until analysis. Blood pressure and heart rate were measured 3 h, 35 min, and 10 min before tyramine administration, and subsequently in 15 min intervals until 6 h after. In a subgroup of eight participants, blood pressure was continuously monitored based on an analysis of pulse pressure curves using the SOMNOtouch™ NIPB non-invase system (SOMNOmedics GmbH, Randersacker, Germany). An orthostatic blood pressure test was performed 10 min before as well as 30 min and 1.5 h after tyramine intake. Pupillometry was performed 35 min prior to, and 1, 2, and 6 h after tyramine administration. Participants were asked to report on symptoms possibly related to tyramine (headache, fatigue, sleepiness, visual or hearing impairments, restlessness, nausea, dizziness, dry mouth, tremor, sensation of cold, and heart palpitation) using visual analogue scales 3 h before and 1, 3, and 6 h after tyramine intake.
(§2) The primary endpoint was the AUC of tyramine in plasma. Secondary endpoints were the other pharmacokinetic parameters of tyramine and its metabolite 4-HPAA, as well as heart rate, blood pressure, pupil size effects, and possible adverse events (headache, fatigue, visual or hearing impairments, restlessness, nausea, dizziness, dry mouth, tremor, hypothermia, heart palpitations). In addition, the cumulative amounts of tyramine and 4-HPAA excreted in urine were measured over time periods of 3 h before (baseline) and 6 h after application.

clinical = assay: clinical
Protocol: In this open-label pharmacokinetic/pharmacodynamic study, pharmacokinetics and effects of 400 mg oral tyramine were analysed in relation to MAO-A, CYP2D6, and OCT1 genotypes in 88 healthy volunteers. Eighty percent of the participants were unselected volunteers from Göttingen area in Germany; the remaining 20% were selected from an internal database to enrich the study sample with rare OCT1 or CYP2D6 variants. With widely accepted statistical criteria (type I error of 0.05 and type II error of 0.2), at least 10 subjects with genetically defined very low activity of OCT1 or CYP2D6 and a similar or higher number without deficiency should be sufficient to confirm a relevant 50% change in tyramine plasma AUC as a result of genetic variation. Because of the very diverse and not pharmacokinetic-based literature data on the functional effects of MAO-A polymorphisms, no power calculation could be performed with regard to MAO-A genotypes. However, a sample size of nearly a hundred individuals should be sufficient to find genotypes with a population frequency of at least 5%. All volunteers gave their written informed consent before participation in the study. The study was approved by the ethics committee of the University of Göttingen. It was registered at the German Clinical Trials Registry and the World Health Organization International Clinical Trials Registry Platform (DRKS00008915; https://www.drks.de/DRKS00008915).
Plasma and urine concentrations of tyramine and 4-HPAA were analysed by HPLC with tandem mass spectrometry using tyramine-d4 (Santa Cruz Biotechnology, Inc., Dallas, TX, USA) as internal standard. GR 49336 (5-[[(methylamino)sulfonyl]methyl]-1H-indole-3-acetic acid; Santa Cruz Biotechnology, Inc.) was used as internal standard for 4-HPAA. The analytical standards for tyramine were obtained from Fluka (Morristown, NJ, USA) and for 4-HPAA from Sigma-Aldrich (Darmstadt, Germany). The limit of detection for tyramine was 0.1 ng/ml in plasma and 10 ng/ml in urine; for 4-HPAA, it was 5 ng/ml in plasma and 0.5 µg/ml in urine. The limit of quantification for tyramine was 0.25 ng/ml in plasma and 15 ng/ml in urine; for 4-HPAA, it was 15 ng/ml in plasma and 1.5 µg/ml in urine.
200 µl of plasma were precipitated in 1.5 ml Eppendorf tubes with 400 µl acetonitrile/methanol (9:1, v:v), including the internal standards. After 10 min on ice, tubes were centrifuged for 30 min at 13,000 rpm, and 300 µl of the supernatant were transferred to a microtiter plate. The supernatant was evaporated using nitrogen and re-dissolved in 0.1% formic acid. 10 µl were injected into the HPLC system. Chromatography was performed using a Shimadzu Nexera system with an API 4000 detector. Separation for analysis of tyramine and methyltyramine was performed at 40°C on a Brownlee SPP RP-Amide 100 x 4.6 mm, 2.7 µm particle size, column using water with 0.1% (v/v) formic acid, 2.57% acetonitrile, and 0.43% methanol as eluent. Detection (positive mode) of tyramine was based on the masses 139.1/121.1 and for tyramine-d4 on 142.0/125.0. Calibration range was 0.5 to 200 µg/l with coefficients of variation of 4.6%, 2.8%, and 2.6% at 2, 20, and 150 µg/l, respectively. Analysis of 4-HPAA was performed on the same system, using 0.1% formic acid, 17.14% acetonitrile, and 2.86% methanol as eluent and detection in the negative mode based on the masses 151.0/107.2 for 4-HPAA and 281.2/142.1 for the internal standard. Calibration range was between 0.03 and 20 mg/l and coefficients of variation were 4.7%, 4.2%, and 3.7% at 1, 5, and 15 mg/l.
Pharmacokinetic parameters were calculated by non-compartmental analysis using Phoenix 64 WinNonlin version 6 (Certara USA, Inc., Princeton NJ, USA). AUCinf of tyramine was calculated from time of dosing using the linear/log trapezoidal rule, and extrapolated to inﬁnity based on the last predicted concentration and using the terminal elimination rate constant (lambda z).

healthy volunteers [2] = assay: Blood pressure and heart rate effects after 400 mg oral tyramine; assay type: in vivo, human
Excerpt: Purity was confirmed by HPLC.

healthy volunteers [3] = assay: Adverse events, adverse symptoms (visual analogue scales) and pupillometry after 400 mg oral tyramine
Protocol: as §1, §2

[4] = system: organic cation transporter 1 (OCT1, or SLC22A1); parameters: method as in Breidert et al., 1998; conditions: ref Breidert et al., 1998; cited from earlier work
[5] = parameters: method as in earlier work; conditions: fasting state; upwards; ref VanDenBerg et al., 2003; Di Stefano et al., 2013; Gillman, 2018; cited from earlier work
[6] = human, in vivo, po, 400 mg, t max
[7] = human, in vivo, po, 400 mg, tmax, range

Which results are given for O=C(O)Cc1ccc(O)cc1 [4-HPAA, 4-hydroxyphenylacetic acid]?
correlation of systemic concentration with dizziness (healthy volunteers [1]): positively; correlation of systemic concentration with dry mouth (healthy volunteers [1]): weakly; correlation of systemic concentration with headache (healthy volunteers [1]): positively; correlation of systemic concentration with heart palpitation (healthy volunteers [1]): positively; Baseline recovery in the urine cumulated for 3 h prior to tyramine administration (clinical; human, in vivo): 2.65 (0.67–9.05) mg; concentration at -3 h (clinical; human, in vivo): 70 ng/mL; participants with baseline plasma concentration below the limit of quantification (clinical; human, in vivo, -3 h): 84%; dose recovered in urine in form of 4-HPAA (clinical; human, in vivo, po): 76.8%; CL renal (clinical; human, in vivo, po, 400 mg): 240 mL/min; Cmax (clinical; human, in vivo, po, 400 mg): 9040 ng/mL; half-life (clinical; human, in vivo, po, 400 mg): 1.22 h; variation of 4-HPAA systemic exposure (plasma AUC) (clinical; human, in vivo, po, 400 mg): up to 3 fold; AUC(0-inf) (clinical; human, in vivo, po, 400 mg, AUC inf): 21600 ng·h/mL; Tmax (clinical; [6]): 1.47 h; Tmax (clinical; [7]): 0.483 to 2.5 h

With CNCCc1ccc(O)cc1 [N-methyltyramine] as the molecule, how does the “Plasma and urine concentrations” value (clinical; 400 mg oral tyramine, below the limit of detection) read?
The value was under 1 ng/mL.

Which results are given for NCCc1ccc(O)cc1 [Tyramine, tyramine]?
correlation of rise in systolic blood pressure with systemic tyramine concentration (healthy volunteers [2]; 400 mg oral tyramine): correlated strongly; participants with blood pressure peaks by >40 mmHg above baseline (healthy volunteers [2]; 400 mg oral tyramine): less than 10%; participants with increases in systolic blood pressure less than 40 mmHg (healthy volunteers [2]; 400 mg oral tyramine): 90%; tyramine concentrations at which blood pressure peaks by >40 mmHg above baseline were observed (healthy volunteers [2]; 400 mg oral tyramine): > 60 µg/L; volunteers with systolic blood pressure increased by more than 10 mmHg (healthy volunteers [2]; 400 mg oral tyramine): 71%; tyramine plasma concentration at which diastolic blood pressure increased (healthy volunteers [2]; concentration-effect analyses): higher than 100 µg/l; tyramine plasma concentration at which systolic blood pressure rises (healthy volunteers [2]; concentration-effect analyses, and above): ≥ 60 µg/L; time of blood pressure reaction after tyramine administration (healthy volunteers [2]; one participant, much delayed): 90 min; serious adverse events (healthy volunteers [3]; 400 mg oral tyramine, 88 healthy volunteers): no serious adverse events; pupil size and pupil reaction to light before and after tyramine administration (healthy volunteers [3]; repeated pupillometric analyses): no difference; correlation of systemic concentration with heart palpitation (healthy volunteers [3]; visual analogue scales, two-tailed, p < 0.001): Positive correlations; correlation of systemic concentration with inner restlessness (healthy volunteers [3]; visual analogue scales, two-tailed, p = 0.02): Positive correlations; OCT1 substrate affinity [4]: substrate with nanomolar affinity; AUC(0-inf) (clinical; female, human, in vivo, po, 400 mg): 0.19 µM·h; AUC(0-inf) (clinical; female, human, in vivo, po, 400 mg, Mean plasma AUCinf): 0.528 µM·h; Baseline recovery in the urine cumulated for 3 h prior to tyramine administration (clinical; human, in vivo): 0.055 (0.007–0.222) mg; effect of MAO-A genotypes on tyramine pharmacokinetics or its metabolism to 4-HPAA (clinical; human, in vivo): no significant effects; effect of polymorphisms in OCT1 and CYP2D6 on tyramine pharmacokinetics or pharmacodynamics (clinical; human, in vivo): did not significantly affect; Baseline plasma concentration (clinical; human, in vivo, -3 h): 0.39 (0.25 & 0.53) ng/ml; participants with baseline plasma concentration below the limit of quantification (clinical; human, in vivo, -3 h): 98%; bioavailability (clinical; human, in vivo, po): < 1%; AUC(0-inf) (clinical; human, in vivo, po, 400 mg): 62.3 ng·h/mL; CL renal (clinical; human, in vivo, po, 400 mg): 260 mL/min; Cmax (clinical; human, in vivo, po, 400 mg): 87 ng/mL; half-life (clinical; human, in vivo, po, 400 mg): 0.917 h; Tmax (clinical; [6]): 0.767 h; Tmax (clinical; [7]): 0.217 to 2 h; oral tyramine dose at which the pressor response occurs [5]: ≥ 200 mg
